Tests used:
[1] = target: T1, streptavidin (Streptomyces avidinii, UniProt P22629); conditions: neutral pH; read-out: iminobiotin dissociation constant; cited from earlier work
[2] = target: T1, streptavidin; test: Ligand binding to the streptavidin biotin binding site (dissociation constant)
Source text: A strut can be formed from streptavidin (FIG. 1), a tetrameric protein of 60 kiloDalton molecular weight secreted by the bacterium Streptomyces avidinii. […] Part d designates two of the four bound biotins on the same “side” of the tetramer in space filling representation. Part e is a representation of the streptavidin tetramer surface showing overall molecular shape.
For example, the first and/or the second moiety can be an iminobiotin group. […] However, at pH values of less than or equal to about 4, the imino group on iminobiotin becomes charged, so that it is displaced from the streptavidin binding site. Thus, a structure can be temporarily formed using an iminobiotin-functionalized crosslinking reagent. […] Then, by lowering the pH below 4, the iminobiotin bonds can release, and components of the temporary structure can be washed away. Thus, a bifunctional crosslinking reagent with an iminobiotin group as the first and/or second moiety can be used to form a temporary scaffold, which assists in the construction of a permanent nanostructure.
More generally, the dyes can be used to monitor the assembly of streptavidin-linked nanostructures.
MALDI or ESI MS can be used to characterize the species. […] FIGS. 34c and 34d show the structures of the 1:1 and 1:2 Azido-ATP-linked SAV:SAMA complexes. Spectroscopic methods can be used to monitor SAV:SAMA complex formation using a dye displacement approach and using DLS alone or combined with static light scattering.

[3] = Stability on 4-12% Bis-TRIS MOPS SDS PAGE after heating at 70° C. with reducing agent and SDS; type: physicochemical; conditions: 70° C. for 10 minutes with reducing agent and SDS
Procedure: We established optimal conditions for complex formation. One issue involved the existence of stable dimeric, trimeric and higher aggregates of streptavidin in most preparations (Sano & Cantor 1990b; Kurzban et al. 1991; Waner et al. 2004). We found the aggregates of liganded and unliganded streptavidin stable to heating at 70° C. and the liganded streptavidin aggregates also stable in SDS PAGE running buffers (FIG. 33). We exploited these features in a gel assay to help assess complexation in both denaturing and native gels (see FIG. 33). The left and middle panels of FIG. 33 show complexes of SAMA and streptavidin analyzed on 4-12% Bis-TRIS gels with 3-(N-Morpholino)propanesulfonic acid (MOPS) SDS running buffer. […] Prior to loading, samples were heated at 70° C. for 10 minutes together with reducing agent and SDS. Lanes are numbered on the top and the sample identity (SAMA and linking reagent) given below. Mark12 MW standards (Invitrogen) are in Lane 1. […] Schematics on the left indicate the electrophoretic mobilities of control molecules including the streptavidin monomer, derivatized and underivatized SAMA monomers, the streptavidin:biotin tetramer and higher order aggregates of the streptavidin:biotin tetramer. Brackets and schematics on the right indicate probable electrophoretic mobilities of SAMA:SAV complexes. […]

T1 sequence (P22629 25-183): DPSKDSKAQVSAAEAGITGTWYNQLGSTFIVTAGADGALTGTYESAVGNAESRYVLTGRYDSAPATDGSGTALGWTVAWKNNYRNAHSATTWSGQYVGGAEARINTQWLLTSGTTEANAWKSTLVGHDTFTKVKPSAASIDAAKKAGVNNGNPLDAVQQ

## N=C1N[C@H]2[C@H](CS[C@H]2CCCCC(=O)O)N1 [iminobiotin]
[1]
  Kd: ~0.01 nM
[2]
  iminobiotin dissociation constant relative to biotin-streptavidin dissociation constant, orders of magnitude greater: 3 orders of magnitude

## streptavidin: tetrameric protein of 60 kiloDalton secreted by Streptomyces avidinii with 4 biotin binding sites
[3]
  folded state under gel conditions: denatured

## O=C(O)c1ccccc1N=Nc1ccc(O)cc1 [HABA, 4′-hydroxyazobenzene-2-carboxylic acid]
[2]
  binds more weakly to streptavidin than biotin: 8 orders of magnitude
  binds more weakly to streptavidin than iminobiotin: 5 orders of magnitude

From patent US8993714B2, “Streptavidin macromolecular adaptor and complexes thereof” (Imiplex LLC, priority 2007, dated 2015)
